Source: ChEMBL document CHEMBL3632621, “Conformationally restricted κ-opioid receptor agonists: Synthesis and pharmacological evaluation of diastereoisomeric and enantiomeric decahydroquinoxalines” (Bioorg Med Chem Lett, 2015)

Experiments:
[1] = molecular target: Mu-type opioid receptor (Cavia porcellus, UniProt P97266); assay: Displacement of [3H]-DAMGO from mu opioid receptor in guinea pig brain membrane after 120 mins by scintillation counting; assay type: cell membranes
[2] = molecular target: Kappa-type opioid receptor (Cavia porcellus, UniProt P41144); assay: Displacement of [3H]-U-69593 from kappa opioid receptor in guinea pig brain membrane after 120 mins by scintillation counting; assay type: cell membranes
[3] = molecular target: T1, Kappa-type opioid receptor (Homo sapiens, UniProt P41145); assay: Binding affinity to kappa opioid receptor (unknown origin)
[4] = molecular target: T1, Kappa-type opioid receptor; assay: Intrinsic activity at kappa opioid receptor in human HEK293 cells at 100 nM after 30 mins by [35S]GTPgammaS binding assay relative to U-69593; assay type: functional, cell-based
[5] = molecular target: Delta-type opioid receptor (Rattus norvegicus, UniProt P33533); assay: Displacement of [3H]-DPDPE from delta opioid receptor in rat brain membrane after 120 mins by scintillation counting; assay type: cell membranes
Sequence of Delta-type opioid receptor (P33533 whole entry): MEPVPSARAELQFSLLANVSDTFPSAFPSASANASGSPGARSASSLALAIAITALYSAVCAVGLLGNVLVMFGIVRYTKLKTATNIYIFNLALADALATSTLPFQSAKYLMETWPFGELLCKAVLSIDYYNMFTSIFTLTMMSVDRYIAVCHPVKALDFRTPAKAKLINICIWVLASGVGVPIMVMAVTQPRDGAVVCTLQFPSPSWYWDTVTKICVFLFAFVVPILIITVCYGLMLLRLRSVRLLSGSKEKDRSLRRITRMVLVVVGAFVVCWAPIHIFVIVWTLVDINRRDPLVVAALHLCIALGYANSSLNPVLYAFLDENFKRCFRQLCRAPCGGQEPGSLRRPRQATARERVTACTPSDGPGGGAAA

Sequence of Mu-type opioid receptor (P97266 whole entry): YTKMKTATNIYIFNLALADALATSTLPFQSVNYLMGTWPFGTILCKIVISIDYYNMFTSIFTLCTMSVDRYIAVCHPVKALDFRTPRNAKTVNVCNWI
T1 sequence (P41145 whole entry): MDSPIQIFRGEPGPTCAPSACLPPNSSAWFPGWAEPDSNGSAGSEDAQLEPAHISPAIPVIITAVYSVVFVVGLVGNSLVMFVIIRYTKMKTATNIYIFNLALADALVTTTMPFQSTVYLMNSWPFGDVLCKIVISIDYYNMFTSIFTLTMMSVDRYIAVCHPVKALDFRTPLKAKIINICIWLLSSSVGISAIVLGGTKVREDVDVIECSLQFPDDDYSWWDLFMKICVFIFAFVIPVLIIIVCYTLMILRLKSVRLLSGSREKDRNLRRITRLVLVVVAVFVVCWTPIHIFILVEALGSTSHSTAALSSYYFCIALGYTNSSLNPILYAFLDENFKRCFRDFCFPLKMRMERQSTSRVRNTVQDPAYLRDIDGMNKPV
Sequence of Kappa-type opioid receptor (Cavia porcellus, UniProt P41144) (P41144 whole entry): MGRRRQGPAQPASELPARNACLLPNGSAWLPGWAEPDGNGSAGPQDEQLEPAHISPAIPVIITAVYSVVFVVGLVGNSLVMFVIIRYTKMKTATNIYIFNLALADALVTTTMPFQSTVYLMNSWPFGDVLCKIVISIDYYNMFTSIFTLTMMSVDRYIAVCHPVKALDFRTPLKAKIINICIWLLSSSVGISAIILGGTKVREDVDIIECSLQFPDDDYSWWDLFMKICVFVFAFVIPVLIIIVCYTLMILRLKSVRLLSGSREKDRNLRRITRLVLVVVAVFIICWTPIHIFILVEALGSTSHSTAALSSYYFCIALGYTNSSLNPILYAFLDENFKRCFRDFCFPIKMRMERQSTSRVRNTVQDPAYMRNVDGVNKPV

Row | Structure (SMILES) | Ki [1] [nM] | further results
1 | COC(=O)N1CCN(C(=O)Cc2ccc(Cl)c(Cl)c2)[C@@H]2[C@@H](N3CCCC3)CCC[C@@H]21 | 43 | –
2 | COC(=O)N1CCN(C(=O)Cc2ccc(Cl)c(Cl)c2)[C@H]2[C@H](N3CCCC3)CCC[C@H]21 (racemic) | 113 | –
3 | COC(=O)N1CCN(C(=O)Cc2ccc(Cl)c(Cl)c2)[C@H]2[C@H](N3CCCC3)CCC[C@@H]21 (stereo in doubt) | 309 | –
4 | COC(=O)N1CCN(C(=O)Cc2ccc(Cl)c(Cl)c2)[C@@H]2[C@H](N3CCCC3)CCC[C@H]21 (stereo in doubt) | 118 | –
5 | COC(=O)N1CCN(C(=O)Cc2ccc(Cl)c(Cl)c2)[C@H]2[C@H](N3CCCC3)CCC[C@H]21 | 544 | –
6 | COC(=O)N1CCN(C(=O)Cc2ccc(Cl)c(Cl)c2)[C@H](CN2CCCC2)C1 | – | Ki [2]: 0.36 nM; Ki [3]: 360 nM
7 | COC(=O)N1CCN(C(=O)Cc2ccc(Cl)c(Cl)c2)[C@H]2[C@@H](N3CCCC3)CCC[C@@H]21 (stereo in doubt) | 343 | –
8 | CN(C(=O)/C=C/c1ccoc1)[C@@H]1CC[C@@]2(O)[C@H]3Cc4ccc(O)c5c4[C@@]2(CCN3CC2CC2)[C@H]1O5 [NALFURAFINE] | – | Activity [4]: 100%; Ki [5]: 0.37 nM
